Source: PMC6272171 (2015)

Experiments:
[1] = system: c-myc (DNA, G4) TGAGGGTGGGGAGGGTGGGGAA; assay: CD melting, 262 nm; conditions: 5 mM KCl; 50 mM Tris-HCl pH 7.4; 3.0 µM compound, 1.5 µM DNA
[2] = system: c-kit (DNA, G4) AGGGAGGGCGCTGGGAGGAGGAGGG; assay: CD melting, 262 nm; conditions: 20 mM KCl; 50 mM Tris-HCl pH 7.4; 3.0 µM compound, 1.5 µM DNA
[3] = system: a-coreTT (DNA, G4) AGGGTTAGGGTTAGGGTTAGGGTT; assay: CD melting, 290 nm; conditions: 100 mM KCl; 50 mM Tris-HCl pH 7.4; 3.0 µM compound, 1.5 µM DNA
[4] = system: c-kit (DNA, G4) AGGGAGGGCGCTGGGAGGAGGAGGG; assay: UV-Vis titration, Scatchard; conditions: 100 mM KCl; 50 mM Tris-HCl pH 7.4, 25 °C
[5] = system: a-core (DNA, G4) AGGGTTAGGGTTAGGGTTAGGG; assay: UV-Vis titration, Scatchard; conditions: 50 mM Tris-HCl pH 7.4, 25 °C
[6] = system: dsDNA (DNA, duplex) GGGAGGTTTCGC/GCGAAACCTCCC; assay: UV melting, 260 nm; conditions: 100 mM KCl, 50 mM Tris-HCl pH 7.4, same value in NaCl
[7] = system: TBA (DNA, G4) GGTTGGTGTGGTTGG; assay: CD melting, 290 nm; conditions: 100 mM KCl; 50 mM Tris-HCl pH 7.4; 3.0 µM compound, 1.5 µM DNA
[8] = system: F21T (DNA, G4) GGGTTAGGGTTAGGGTTAGGG; assay: FRET melting; conditions: 150 mM KCl; 100 mM Tris-HCl pH 7.4; 0.4 µM compound, 0.2 µM F21T
[9] = system: TBA (DNA, G4) GGTTGGTGTGGTTGG; assay: UV-Vis titration, Scatchard; conditions: 100 mM KCl; 50 mM Tris-HCl pH 7.4, 25 °C
[10] = system: a-core (DNA, G4) AGGGTTAGGGTTAGGGTTAGGG; assay: CD melting, 290 nm; conditions: 50 mM Tris-HCl pH 7.4, 3.0 µM compound, 1.5 µM DNA
[11] = system: a-coreTT (DNA, G4) AGGGTTAGGGTTAGGGTTAGGGTT; assay: UV-Vis titration, Scatchard; conditions: 100 mM KCl; 50 mM Tris-HCl pH 7.4, 25 °C
[12] = system: c-myc (DNA, G4) TGAGGGTGGGGAGGGTGGGGAA; assay: UV-Vis titration, Scatchard; conditions: 100 mM KCl; 50 mM Tris-HCl pH 7.4, 25 °C
[13] = system: dsDNA (DNA, duplex) GGGAGGTTTCGC/GCGAAACCTCCC; assay: UV-Vis titration, Scatchard; conditions: 100 mM KCl; 50 mM Tris-HCl pH 7.4, 25 °C; 0.60 ± 0.08 in 100 mM NaCl

∆Tm [1] [°C] | ∆Tm [2] [°C] | ∆Tm [3] [°C] | K [4] | K ([5]; 100 mM KCl) | K ([5]; 100 mM NaCl) | ∆Tm ([6]; 2:1 ligand:DNA in table (text: 1-fold)) [°C] | ∆Tm [7] [°C] | Tm increase [8] [°C] | K [9] | ∆Tm ([10]; 100 mM KCl) [°C] | K [11] | K [12] | K [13] | ∆Tm ([6]; 2:1 ligand:DNA) [°C] | ∆Tm ([10]; 100 mM NaCl) [°C] | SMILES
15 | 11 | 18 | 1.9 ± 0.18 × 10^6 M^-1 | 10 ± 0.5 × 10^6 M^-1 | 1.0 ± 0.04 × 10^6 M^-1 | 0.3 | 11 | 11 | 3.5 ± 0.2 × 10^6 M^-1 | 15 | 6.1 ± 0.4 × 10^6 M^-1 | 4.0 ± 0.3 × 10^6 M^-1 |  |  |  | CN1CCCNC(=O)c2ccc(cc2)C(=O)NCCCN(C)CCCN2C(=O)c3ccc4c5c(ccc(c35)C2=O)C(=O)N(CCC1)C4=O
 |  |  | 0.74 ± 0.05 × 10^6 M^-1 | 1.6 ± 0.2 × 10^6 M^-1 | 0.73 ± 0.09 × 10^6 M^-1 |  |  |  | 0.49 ± 0.04 × 10^6 M^-1 | 5 | 1.9 ± 0.3 × 10^6 M^-1 | 1.5 ± 0.2 × 10^6 M^-1 | 0.60 ± 0.04 × 10^6 M^-1 | 12 | 1 | CN(C)CCCN1C(=O)c2ccc3c4c(ccc(c24)C1=O)C(=O)N(CCCN(C)C)C3=O
